The record followed here is PubChem BioAssay (NCI).

What all share (test): DTP human tumour cell line panel, 48 h
Experiment [1] has as its system UACC-257 melanoma.
For experiment [2], the system named is MALME-3M melanoma.
In experiment [3] the test system is SNB-75 CNS.
Experiment [4] deals with T-47D breast.
Experiment [5] has as its system KM12 colon.
The subject of experiment [6] is SF-295 CNS.
The test system of experiment [7] is TK-10 renal.
Experiment [8] has as its system HOP-62 NSCLC.
In experiment [9] the test system is SK-MEL-2 melanoma.
Experiment [10] concerns SK-MEL-28 melanoma.

“And” between values parts separate entries of the source, which are not always exact repeats. Equal entries are not always repeated.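 Tested at 5 concentrations; 48 h exposure; 96-well plates; endpoints linearly interpolated, else capped at highest concentration. The concentration for 50% growth inhibition is given as GI50. At the TGI there is no net growth.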

Consider `OC1CSc2nc3ccccc3n2C1` (stereo not drawn), for which the total growth inhibition concentration (TGI) (in general, the concentration at which net growth stops) is > 100 µM in experiment [1]; > 100 µM in experiment [2]; 44.8 µM in experiment [3]; > 100 µM in [4]; > 100 µM in [5]; > 100 µM in [6]. In addition, the concentration for total growth inhibition (TGI) in experiment [7] was > 100 µM.
Take `COc1ccc2nc3cccc([N+](=O)[O-])c3c(NCCCO)c2c1`: the GI50 (usually the concentration that inhibits growth by half) in [8] was 0.00282 µM; in experiment [1], 0.00379 µM; in [2], 0.00116 µM; in experiment [3], 0.0151 µM and 0.0535 µM; in [4] it was 0.0292 µM and 0.136 µM; in experiment [5], 0.00183 µM. The GI50 in [9] was 0.00162 µM; in [6], 0.00799 µM and 0.0319 µM; in [7], 0.00188 µM. For the same compound, the TGI in [8] was 0.0157 µM and 0.0193 µM; in experiment [1], 0.0166 µM; in experiment [2], 0.00344 µM and 0.0202 µM; in [3] it was 0.0482 µM and 0.263 µM; in [5], 0.0146 µM and 0.0141 µM; in experiment [9], 0.00376 µM.
As to `Cc1ccc(C(=O)N/N=C(\N=Nc2ccc(C(=O)O)cc2)c2ccc(N(CCC#N)CCC#N)cc2C)cc1`, the TGI in [8], in experiment [1], in experiment [3], in experiment [4], in experiment [5] and in experiment [10] was > 100 µM in each case. For the same compound, the TGI in experiment [9], in experiment [6] and in experiment [7] was > 100 µM each time.
For `CCOc1cc2c(c(OCC)c1O)CC[C@@H]1[C@@H]2CC[C@]2(C)[C@@H](O)CC[C@@H]12`, the TGI in [8] came out at 40.5 µM; in experiment [2], 66.4 µM; in [3] it was 10.6 µM; in experiment [4], 54.3 µM; in experiment [5] it was 72.5 µM; in experiment [9], 83.7 µM. Moreover, the concentration for total growth inhibition (TGI) was 13.1 µM in [6] and > 100 µM in [7].
With `COc1cc(OC)c2[nH]c3c(O)c(-c4c(C)cc5c([nH]c6c(OC)cc(OC)cc65)c4O)c(C)cc3c2c1`, the total growth inhibition concentration (TGI) in experiment [8] was found to be 23.9 µM; in experiment [1], 19 µM; in experiment [3], 15.5 µM; in [4], 17.7 µM; in experiment [5], 23.8 µM; in [10], 19.5 µM. In addition, the values for the TGI in [9], in experiment [6] and in [7] were 17.4 µM, 21.8 µM and 17.9 µM, respectively. The GI50 in experiment [6] is 10.2 µM.
Turning to `O=C(c1ccc(Cl)cc1)N(C(=S)OCCOc1ccccc1)c1ccccc1`, the concentration for total growth inhibition (TGI) in experiment [8] turned out to be 54 µM; in experiment [1], 39.5 µM; in experiment [2] it was 70.7 µM; in [4], 56.5 µM; in experiment [5], 39.4 µM; in experiment [10], 34.9 µM. Besides, the figures for the concentration for total growth inhibition (TGI) in experiment [9], in [6] and in [7] were 45.7 µM, 94 µM and > 100 µM, respectively.
For `CCCCCCCCCCCCCCCCCCOCC(O)COP(=O)(O)OCC1OC(n2ccc(N)nc2=O)C(O)C1O` (stereo not drawn), the total growth inhibition concentration (TGI) was 48.9 µM in experiment [8]; > 100 µM in experiment [1]; > 100 µM in experiment [2]; 28.7 µM in experiment [3]; > 100 µM in experiment [4]; 41 µM in [5]. Moreover, the figures for the TGI in experiment [10], in [6] and in experiment [7] were > 100 µM, 68.8 µM and 51.1 µM, respectively.
Consider `c1ccc2c(c1)OC(N1CCCC1)c1cnc(N3CCOCC3)nc1-2` (stereo not drawn), for which the TGI in experiment [8] is > 100 µM; in experiment [1], 74.2 µM; in experiment [2] it was > 100 µM; in experiment [3], 54.4 µM; in [4], 45.2 µM; in experiment [5], > 100 µM. In addition, the TGI in [10], in experiment [6] and in experiment [7] was > 100 µM each time.
Take `CCOC(=O)c1nc2ccc(C(F)(F)F)cc2nc1Oc1ccc(C(=O)OC)cc1`: the concentration for total growth inhibition (TGI) in experiment [8] is 74.8 µM; in experiment [1] it was > 100 µM; in experiment [3] it was > 100 µM; in experiment [4] it was > 100 µM; in experiment [5], > 100 µM; in [10], > 100 µM. Also, the TGI in [9], in experiment [6] and in [7] was > 100 µM in each case.
In the case of `Cc1cnc2[nH]c(-c3ccc4ccccc4c3)cc(=O)c2c1`, the TGI in [8], in experiment [3], in [4], in experiment [5], in experiment [10] and in [9] was > 100 µM in each case. Besides, the TGI in experiment [6] and in [7] was > 100 µM in each case. Moreover, the GI50 in [6] is 0.549 µM.
Take `CCOC(=O)/C=C(/C)Nc1nc2c(c(C(=O)OC)c1C#N)CCCC2`: the TGI in experiment [8], in experiment [1], in experiment [2], in experiment [4], in [5] and in experiment [10] was > 100 µM each time. In addition, the total growth inhibition concentration (TGI) in experiment [9], in experiment [6] and in [7] was > 100 µM throughout.
